Results published in ChEMBL document CHEMBL1201862, “PubChem BioAssay data set” (2004).
Calls of active or inactive are those of the source.

Legend:
[1] = NIH-3T3 fibroblast cytotoxicity, dose response, cytotoxicity control, cell-based, fluorescence, Alamar Blue, secondary assay (AID 2327); type: functional;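 note: NIH-3T3 mouse fibroblasts cultured with fluconazole at 8 µg/mL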
[2] = biological target: Peroxisome proliferator-activated receptor gamma/Nuclear receptor coactivator 1 (Homo sapiens, UniProt P37231); test: (§1) TR-FRET dose response biochemical High Throughput Screening assay for agonists of the steroid receptor coactivator 1 (SRC-1) recruitment by the peroxisome proliferator-activated receptor gamma (PPAR gamma): non-selective agonists. [Related pubchem assays (depositor defined):AID1300, AID1808, AID504735, AID631]; type: protein assay
[3] = biological target: Peroxisome proliferator-activated receptor gamma/Nuclear receptor coactivator 3 (Homo sapiens, UniProt P37231); test: as §1, with “3 (SRC-3)” for “1 (SRC-1)”, “assays: 1301 (Confirmation screen.), 1048 (Primary screen.)]” for “assays (depositor defined):AID1300, AID1808, AID504735, AID631]”; type: functional
[4] = fluconazole-exposed Candida albicans growth modulators – fluorescence, retest, confirmation (AID 2467); type: functional, cell-based
[5] = biological target: T1, Serine/threonine-protein phosphatase (Candida dubliniensis (strain CD36 / CBS 7987 / NCPF 3949 / NRRLY-17841) (Yeast), UniProt B9W6M3); test: blockers of CaCl2-induced CDRE-lacZ signaling – S. cerevisiae, luminescence, secondary, dose response (AID 2388); type: functional, cell-based;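 note: yeast reporter cells carrying a calcineurin-responsive lacZ construct stimulated with calcium chloride; luminescent beta-galactosidase reporter signal in whole cells rather than isolated phosphatase activity; potency for inhibition where a drop in reporter signal means calcineurin blockade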
T1 sequence (B9W6M3 whole entry): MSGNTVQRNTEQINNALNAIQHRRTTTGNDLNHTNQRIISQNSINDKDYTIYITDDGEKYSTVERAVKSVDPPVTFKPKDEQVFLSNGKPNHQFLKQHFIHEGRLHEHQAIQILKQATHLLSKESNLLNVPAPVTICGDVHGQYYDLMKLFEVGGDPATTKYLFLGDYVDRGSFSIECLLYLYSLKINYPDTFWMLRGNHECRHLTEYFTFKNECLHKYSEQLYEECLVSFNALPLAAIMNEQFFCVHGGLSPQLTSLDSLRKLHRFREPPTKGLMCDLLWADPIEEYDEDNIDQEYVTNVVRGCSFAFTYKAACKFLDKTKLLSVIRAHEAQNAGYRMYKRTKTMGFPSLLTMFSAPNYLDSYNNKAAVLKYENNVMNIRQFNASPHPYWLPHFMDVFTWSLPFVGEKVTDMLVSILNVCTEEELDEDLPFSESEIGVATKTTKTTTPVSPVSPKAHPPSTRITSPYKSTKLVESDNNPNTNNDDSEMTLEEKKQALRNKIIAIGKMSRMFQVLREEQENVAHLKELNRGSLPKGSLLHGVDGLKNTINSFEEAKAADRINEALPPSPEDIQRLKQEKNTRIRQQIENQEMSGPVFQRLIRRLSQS

[6] = biological target: Peroxisome proliferator-activated receptor gamma/Nuclear receptor coactivator 2 (Homo sapiens, UniProt P37231); test: TR-FRET dose response biochemical High Throughput Screening assay for agonists of the steroid receptor coactivator 2 (SRC-2) recruitment by the peroxisome proliferator-activated receptor gamma (PPAR gamma): non-selective agonists. [Related pubchem assays: 1297, 1032 ]; type: functional
Troponin, cardiac muscle = Troponin, cardiac muscle (Homo sapiens, UniProt P19429+P45379+P63316); test: Fluorescence-based biochemical high throughput dose response assay for activators of the calcium sensitivity of cardiac Regulated Thin Filaments (RTF). [Related pubchem assays (depositor defined):AID493008, AID493018, AID504382, AID504383]; type: protein-complex assay
[7] = biological target: ATP-dependent molecular chaperone HSP82 (Candida albicans (strain WO-1) (Yeast), UniProt C4YTQ8); test: steroid-induced GRE reporter decrease in yeast – S. cerevisiae, luminescence, Hsp90 inhibitor project, dose response (AID 2400); type: functional, cell-based;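 note: beta-galactosidase luminescence from glucocorticoid response element reporter as proxy for Hsp90 function; inhibitor potency where signal loss means Hsp90 inhibition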
Escherichia coli = test: microbe, parasite or virus in culture
[8] = biological target: T2, Microphthalmia-associated transcription factor (Homo sapiens, UniProt O75030); test: reducers of TRPM1 reporter luminescence, concentration series – cell-based, SK-MEL-5, cherry-picked, set 3, MITF inhibitor project, dose response (AID 493073); type: functional;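 note: SK-MEL-5 melanoma cells with luciferase driven by the MITF target TRPM1 promoter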
T2 sequence (O75030 whole entry): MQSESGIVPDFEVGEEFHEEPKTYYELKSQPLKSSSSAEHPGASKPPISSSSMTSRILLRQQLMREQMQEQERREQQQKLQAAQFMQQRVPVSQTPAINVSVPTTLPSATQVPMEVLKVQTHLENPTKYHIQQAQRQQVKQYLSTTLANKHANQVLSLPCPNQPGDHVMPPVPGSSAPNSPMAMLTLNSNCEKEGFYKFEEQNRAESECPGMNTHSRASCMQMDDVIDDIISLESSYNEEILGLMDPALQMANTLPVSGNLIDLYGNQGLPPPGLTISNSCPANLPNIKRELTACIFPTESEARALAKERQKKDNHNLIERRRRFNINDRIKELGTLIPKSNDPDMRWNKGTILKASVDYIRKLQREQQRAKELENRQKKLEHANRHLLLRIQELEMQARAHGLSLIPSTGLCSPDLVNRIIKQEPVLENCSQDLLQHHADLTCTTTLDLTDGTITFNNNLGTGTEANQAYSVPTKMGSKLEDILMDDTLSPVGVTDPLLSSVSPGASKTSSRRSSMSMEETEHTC

[9] = biological target: T3, Replicative DNA helicase DnaB (Mycobacterium tuberculosis, UniProt P9WMR3); test: DnaB intein splicing inhibitors, dose response, biochemical, cell-free fluorescence (AID 449749); type: functional
T3 sequence (P9WMR3 whole entry): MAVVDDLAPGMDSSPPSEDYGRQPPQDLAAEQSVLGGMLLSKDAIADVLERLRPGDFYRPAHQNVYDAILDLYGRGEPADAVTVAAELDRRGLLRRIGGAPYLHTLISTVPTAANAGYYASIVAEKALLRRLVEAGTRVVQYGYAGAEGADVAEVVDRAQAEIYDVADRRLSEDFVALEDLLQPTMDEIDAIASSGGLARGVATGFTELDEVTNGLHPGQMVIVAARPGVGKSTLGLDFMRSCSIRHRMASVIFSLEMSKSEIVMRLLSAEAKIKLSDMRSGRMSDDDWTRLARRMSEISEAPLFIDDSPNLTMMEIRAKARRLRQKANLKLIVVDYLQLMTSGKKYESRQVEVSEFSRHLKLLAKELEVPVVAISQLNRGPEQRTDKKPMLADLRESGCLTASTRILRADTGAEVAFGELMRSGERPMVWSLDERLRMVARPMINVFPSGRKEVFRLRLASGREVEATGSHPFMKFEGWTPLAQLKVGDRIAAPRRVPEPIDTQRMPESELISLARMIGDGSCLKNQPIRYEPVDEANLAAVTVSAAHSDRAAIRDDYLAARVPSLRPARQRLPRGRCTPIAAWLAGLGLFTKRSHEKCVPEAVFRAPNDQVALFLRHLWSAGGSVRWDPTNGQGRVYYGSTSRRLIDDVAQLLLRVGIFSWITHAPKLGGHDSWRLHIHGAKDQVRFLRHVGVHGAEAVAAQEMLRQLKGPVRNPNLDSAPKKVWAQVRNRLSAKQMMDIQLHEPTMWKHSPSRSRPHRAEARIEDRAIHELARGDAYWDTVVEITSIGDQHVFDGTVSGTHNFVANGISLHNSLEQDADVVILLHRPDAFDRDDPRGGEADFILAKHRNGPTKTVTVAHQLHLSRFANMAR

[10] = biological target: T4, Apoptotic protease-activating factor 1 (Homo sapiens, UniProt O14727); type: functional
T4 sequence (O14727 whole entry): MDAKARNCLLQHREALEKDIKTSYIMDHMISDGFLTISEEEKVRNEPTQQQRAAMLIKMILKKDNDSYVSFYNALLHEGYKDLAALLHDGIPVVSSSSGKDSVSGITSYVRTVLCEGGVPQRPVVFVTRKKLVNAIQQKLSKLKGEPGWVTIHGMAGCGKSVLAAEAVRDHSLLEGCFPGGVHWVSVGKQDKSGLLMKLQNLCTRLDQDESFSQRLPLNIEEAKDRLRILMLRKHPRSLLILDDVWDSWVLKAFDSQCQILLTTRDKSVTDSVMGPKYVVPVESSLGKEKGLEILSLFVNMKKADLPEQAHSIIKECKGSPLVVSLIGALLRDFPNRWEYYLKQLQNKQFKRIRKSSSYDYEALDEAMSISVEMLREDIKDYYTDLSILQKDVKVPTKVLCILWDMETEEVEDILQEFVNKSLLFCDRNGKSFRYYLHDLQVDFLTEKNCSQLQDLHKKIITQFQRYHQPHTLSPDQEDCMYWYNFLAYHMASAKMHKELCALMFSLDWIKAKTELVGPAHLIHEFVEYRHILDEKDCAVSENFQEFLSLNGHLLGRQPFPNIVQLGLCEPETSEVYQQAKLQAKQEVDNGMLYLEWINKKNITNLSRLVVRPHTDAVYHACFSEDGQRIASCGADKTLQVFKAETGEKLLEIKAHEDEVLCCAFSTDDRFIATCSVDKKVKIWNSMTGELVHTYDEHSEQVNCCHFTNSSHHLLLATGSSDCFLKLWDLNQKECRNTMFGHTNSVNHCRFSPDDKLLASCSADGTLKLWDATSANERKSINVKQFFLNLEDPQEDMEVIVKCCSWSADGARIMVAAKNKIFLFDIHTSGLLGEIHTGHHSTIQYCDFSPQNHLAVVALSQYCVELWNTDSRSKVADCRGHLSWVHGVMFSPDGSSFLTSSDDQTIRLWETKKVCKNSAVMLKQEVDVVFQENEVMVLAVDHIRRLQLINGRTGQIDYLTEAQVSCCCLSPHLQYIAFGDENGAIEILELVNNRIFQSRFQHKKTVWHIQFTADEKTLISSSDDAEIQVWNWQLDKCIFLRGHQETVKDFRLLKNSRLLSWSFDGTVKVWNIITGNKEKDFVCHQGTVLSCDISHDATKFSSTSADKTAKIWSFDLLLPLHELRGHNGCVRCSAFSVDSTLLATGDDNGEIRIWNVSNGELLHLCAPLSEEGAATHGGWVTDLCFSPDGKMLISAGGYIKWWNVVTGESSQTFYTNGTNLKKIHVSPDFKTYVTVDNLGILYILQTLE

Protein RecA = biological target: T5, Protein RecA (Mycobacterium tuberculosis, UniProt P9WHJ3); test: Fluorescence Cell-Free Homogeneous Dose Retest to Identify Inhibitors of RecA-Intein Splicing Activity. [Related pubchem assays (depositor defined):AID2097, AID2223, AID489010, AID492950]; type: functional
T5 sequence (P9WHJ3 whole entry): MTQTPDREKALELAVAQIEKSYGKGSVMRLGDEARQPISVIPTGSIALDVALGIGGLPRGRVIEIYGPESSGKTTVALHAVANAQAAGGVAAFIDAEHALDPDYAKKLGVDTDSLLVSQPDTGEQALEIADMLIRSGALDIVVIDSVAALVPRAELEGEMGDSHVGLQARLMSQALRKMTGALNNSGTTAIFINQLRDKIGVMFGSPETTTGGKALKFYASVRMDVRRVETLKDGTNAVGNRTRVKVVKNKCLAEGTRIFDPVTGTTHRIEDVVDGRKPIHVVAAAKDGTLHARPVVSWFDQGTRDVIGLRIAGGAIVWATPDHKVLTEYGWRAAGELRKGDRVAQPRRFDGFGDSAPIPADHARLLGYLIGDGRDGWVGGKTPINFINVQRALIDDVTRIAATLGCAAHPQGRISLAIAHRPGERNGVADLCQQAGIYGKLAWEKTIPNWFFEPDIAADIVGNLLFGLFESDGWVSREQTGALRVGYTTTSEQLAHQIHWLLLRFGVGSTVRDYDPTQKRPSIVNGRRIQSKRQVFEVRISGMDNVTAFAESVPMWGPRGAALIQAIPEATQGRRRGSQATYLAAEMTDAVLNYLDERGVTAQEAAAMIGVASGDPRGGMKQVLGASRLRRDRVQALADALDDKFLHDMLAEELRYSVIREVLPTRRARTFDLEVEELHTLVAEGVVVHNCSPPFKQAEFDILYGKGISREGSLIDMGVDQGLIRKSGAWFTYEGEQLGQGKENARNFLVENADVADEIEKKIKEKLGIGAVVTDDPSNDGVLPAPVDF

A-375 = test: MITF: Counter assay: A375 proliferation Measured in Cell-Based System Using Plate Reader - 2084-03_Inhibitor_Dose_DryPowder_Activity. [Related pubchem assays (depositor defined):AID488944]; type: functional; conditions: Homo sapiens

Question: With `Cc1c(O)c2c3c(cccc3c1O)C(=O)N(c1ccccc1)C2=O` as the compound, how does the EC50 [1] read?
Answer: Its EC50 is > 150 µM (inactive).

Question: What about the EC50 [2] of the same compound?
Answer: Its EC50 is > 79.4 µM (inactive).

Question: And the EC50 [3]?
Answer: Its EC50 is > 79.4 µM (not active).

Question: And the EC50 [4]?
Answer: The EC50 was 0.492 µM (active).

Question: And the EC50 [5]?
Answer: Its EC50 is > 180 µM (inactive).

Question: What about the EC50 [6] of the same compound?
Answer: The EC50 was > 79.4 µM (not active).

Question: And the EC50 (Troponin, cardiac muscle)?
Answer: Its EC50 is 2.9 µM (active).

Question: What about the EC50 [7] of the same compound?
Answer: Its EC50 is 82.8 µM (active).

Question: Which AC50 (Escherichia coli) does the source give for `CC1CN(S(=O)(=O)c2ccc(C(=O)Nc3ccccc3F)cc2)CC(C)O1` (stereo not given) here?
Answer: The AC50 was 25.1 µM (active).

Question: With `CC1(C)CC(=O)C/C(=N\NC(=O)CCc2ccc(S(=O)(=O)N3CCOCC3)cc2)C1` as the compound, how does the AC50 (Escherichia coli) read?
Answer: The AC50 was 44.6 µM (active).

Question: Which results are given for `CC1=C(CC(=O)c2ccccc2)C(=O)c2ccccc2C1=O`?
Answer: AC50 [8]: 7.15 µM (active); AC50 [9]: 18.7 µM (active); IC50 [10]: 28.8 µM (active); EC50 (Protein RecA): 3.45 µM (active); AC50 (A-375): 42.7 µM (active)
